In general, IC50 refers to the concentration that gives 50% inhibition.

Data set [1] concerns A-Raf, B-RafV600E and C-Raf. The experiment in a line: ActivX KiNativ A375 whole cell lysate assay, summary over Raf isoforms. The format is binding, human. Particulars: A375 cells; summary of Table 1. The procedure: (§1) To further evaluate the enzymatic pan Raf activities of test compounds, they are evaluated in a KiNativ assay developed and carried out by ActivX Biosciences Inc. using whole cell lysates of A375 cells. A375 cells are human melanoma cells with a B-Raf V600E mutation.
Sample preparation: A375 cells from ATCC are lysed by sonication in commercially available lysis buffer, cleared by centrifugation, and the resulting supernatant gel filtered into a commercially available kinase reaction buffer containing 20 mM MnCl2. Final protein concentration of lysates are 10 mg/mL. 5 μL of each test compound is added from 100 μM, 10 μM, 1 μM, or 0.1 μM stock solutions in DMSO to 500 uL of lysate in duplicate for final concentrations of 1 μM, 0.1 μM, 0.01 μM, and 0.001 μM. 5 μL of DMSO is added to 500 μL of lysate in quadruplicate for controls. After 15 minute incubation, desthiobiotin-ATP acylphosphate probe is added to each sample to a final concentration of 5 μM and incubated with the samples for 10 minutes. […]
(§2) Data collection: Enriched peptide samples are analyzed by LC-MS/MS on a Thermo-LTQ Velos ion trap mass spectrometer using ActivX data collection methodology for A375 cells.
Data analysis: All quantitation is performed by extracting characteristic fragment ion signals from targeted MS/MS spectra and comparing signals in control and treated samples. […]

A further data set addresses C-Raf (Homo sapiens (Human), UniProt P04049). The experiment in a line: ActivX KiNativ A375 whole cell lysate assay. The class given is binding. As for the experimental part:
as §1
(§3) Sample preparation: A375 cells from ATCC are lysed by sonication in commercially available lysis buffer, cleared by centrifugation, and the resulting supernatant gel filtered into a commercially available kinase reaction buffer containing 20 mM MnCl2. Final protein concentration of lysates are 10 mg/mL. 5 μL of each test compound is added from 100 μM, 10 μM, 1 μM, or 0.1 μM stock solutions in DMSO to 500 uL of lysate in duplicate for final concentrations of 1 μM, 0.1 μM, 0.01 μM, and 0.001 μM. 5 μL of DMSO is added to 500 μL of lysate in quadruplicate for controls. After 15 minute incubation, desthiobiotin-ATP acylphosphate probe is added to each sample to a final concentration of 5 μM and incubated with the samples for 10 minutes. Following the probe reaction, samples are prepared for targeted mass spectrum analysis using ActivX standard protocol. Briefly, samples are prepared for trypsin digestion (denature, reduce alkylate), digested with trypsin, and desthio-biotinylated peptides are enriched on streptavidin resin.
as §2
(§4) Data analysis: All quantitation is performed by extracting characteristic fragment ion signals from targeted MS/MS spectra and comparing signals in control and treated samples. ActivX software is used with manual validation/visual inspection performed as needed based on data flagging/filtering measures. All inhibition data points are visually verified, as are all data points showing variability outside of normal limits.

The target of the next data set is A-Raf (Homo sapiens (Human), UniProt P10398). The experiment in a line: ActivX KiNativ A375 whole cell lysate assay. The format is binding. As for the experimental part:
as §1, §3, §2, §4

In another data set the target is B-Raf (V600E) (Homo sapiens (Human), UniProt P15056, V600E). The experiment in a line: ActivX KiNativ A375 whole cell lysate assay. The format is binding. The procedure: as §1, §3, §2, §4
Sequence of B-Raf (V600E) (P15056 whole entry V600E): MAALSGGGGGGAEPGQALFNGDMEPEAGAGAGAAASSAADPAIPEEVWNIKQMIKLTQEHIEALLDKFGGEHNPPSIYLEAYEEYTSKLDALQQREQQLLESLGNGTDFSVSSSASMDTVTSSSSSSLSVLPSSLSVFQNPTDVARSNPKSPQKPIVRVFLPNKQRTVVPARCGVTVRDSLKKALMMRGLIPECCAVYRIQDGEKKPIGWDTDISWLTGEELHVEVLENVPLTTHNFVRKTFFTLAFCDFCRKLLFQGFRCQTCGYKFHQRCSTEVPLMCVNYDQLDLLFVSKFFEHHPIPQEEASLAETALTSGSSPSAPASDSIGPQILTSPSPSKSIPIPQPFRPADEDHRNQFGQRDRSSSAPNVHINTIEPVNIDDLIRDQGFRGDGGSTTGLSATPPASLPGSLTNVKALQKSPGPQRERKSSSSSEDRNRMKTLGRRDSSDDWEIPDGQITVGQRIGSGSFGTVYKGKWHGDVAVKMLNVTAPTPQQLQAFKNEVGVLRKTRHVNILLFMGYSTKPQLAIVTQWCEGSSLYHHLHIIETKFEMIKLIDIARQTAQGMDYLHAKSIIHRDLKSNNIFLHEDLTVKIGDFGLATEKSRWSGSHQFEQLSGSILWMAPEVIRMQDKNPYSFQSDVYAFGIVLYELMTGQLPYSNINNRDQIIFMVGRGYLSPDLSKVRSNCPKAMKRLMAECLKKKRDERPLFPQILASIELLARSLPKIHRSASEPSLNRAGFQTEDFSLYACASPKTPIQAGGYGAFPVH
The subject of data set [2] is A375res cells.
Text: (§6) A vemurafenib-resistant cell line is generated by chronic treatment of the human melanoma cell line A375 (ATCC) harboring the B-Raf V600E mutation with increasing concentrations PLX4720.
The subject of data set [3] is A375res cells. The experiment in a line: Proliferation assay in vemurafenib-resistant A375res melanoma cells. Particulars: Homo sapiens, 72 h, read-out: absolute IC50 values.
Text: as §6
Data set [4] is described as follows: Body weight in A375 mouse xenograft efficacy model. The class given is in vivo, mice. Particulars: oral, 21 days. As for the experimental part:
(§5) To further evaluate in vivo activity of compounds of Formula I, an A375 xenograft tumor model is utilized. Briefly, 10×10^6 cells in a 1:1 matrigel mix (0.2 mL total volume) are implanted by subcutaneous injection in the hind leg of nude female mice. A total of 8-10 mice in each group are used. Treatment is initiated with oral administration (gavage) of a test compound or vehicle (20% captisol, 25 mM phosphate, pH2.0) in 0.2 mL volume when tumor size reaches approximately 300-500 mg. Test compound is orally dosed twice or thrice a day for 21 days. Tumor growth and body weight are monitored over time to evaluate efficacy and signs of toxicity. Bidimensional measurements of tumors are performed twice a week and tumor volumes are calculated based on the following formula: (Tumor Volume)=[(L)×(W^2)×(π/6)] where L is mid-axis length and W is mid-axis width. Tumor volume data are transformed to a log scale to equalize variance across time and treatment groups. The log volume data are analyzed with a two-way repeated measures analysis of variance by time and treatment using the MIXED procedures in SAS software (version 8.2). The correlation model for the repeated measures is spatial power. Treated groups are compared to the control group at each time point. The MIXED procedure is also used separately for each treatment group to calculate adjusted means and standard errors at each time point. Both analyses account for the autocorrelation within each animal and the loss of data that occurs when animals with large tumors are removed from the study early. The adjusted means and standard errors are plotted for each treatment group versus time.

The test system of the next data set is A375 xenograft tumor. The experiment in a line: A375 mouse xenograft efficacy model. The class given is in vivo, mice. Particulars: oral, 21 days. As for the experimental part: as §5
The subject of data set [5] is phospho-ERK in HCT-116 cells. The experiment in a line: HCT-116 cell pERK assay (AlphaScreen SureFire). The class given is cell-based. Particulars: Homo sapiens; HCT-116 cells, B-Raf wild type, K-Ras mutation; 4 hours; read-out: IC50 reduction of phospho-ERK signal. As for the experimental part:
Examples of Formula I are tested against HCT-116 cells harboring wild type B-Raf and K-Ras mutation. The phospho-ERK activities are evaluated as described below.
HCT-116 cells (catalog #CCL-247) are obtained from the American Type Culture Collection (ATCC, Manassas, Va.). Briefly, cells are grown in McCoy's 5A supplemented with 10% characterized fetal bovine serum (Invitrogen, Carlsbad, Calif.), and 1% Penicillin/Streptomycin/L-Glutamine at 37 degrees Celsius, 5% CO2, and 95% humidity. Cells are allowed to expand until reaching 75-90% confluency at which point they are subcultured or harvested for assay use. HCT-116 cells suspended in complete media are added to 384-well tissue culture treated plates (3×10^5 cells/mL; 7,500 cells per well). The cells are incubated overnight at 37 degrees Celsius, 5% CO2, and 95% humidity. Next, test compound or DMSO diluted in complete media is added to the wells (0.25% final DMSO concentration). The plates are then incubated for 4 hours at 37 degrees Celsius, 5% CO2, and 95% humidity. Following compound incubation, the cells are lysed at 4° C. for 20 minutes with shaking Cell lysates are centrifuged and the supernatant is transferred to a new plate. An aliquot of each lysate is transferred to a white 384-well assay plate. Using the AlphaScreen SureFire pERK kit (Perkin-Elmer, Waltham, Mass.), an acceptor bead mixture is added to each well and incubated for 2 h at room temperature in the dark. A donor bead mixture is then added to each well and incubated for 2 h at room temperature in the dark. Plates are read using a Synergy2 plate reader (Biotek, Winooski, Vt.) in Plate Mode with Timing Control. Read: (F)1: excitation: 680/30 nm, emission: Plug. 2: Excitation: Plug, emission: 570/100 nm. Top mirror 635 nm. Data is analyzed using Prism software (Graphpad, San Diego, Calif.) to calculate IC50 values and Excel software (Microsoft, Redmond, Wash.) to calculate stimulation compared to control.
In general terms: Alpha assays give light when donor and acceptor beads are brought close together.

For data set [6], the system named is phospho-ERK in A375 (B-Raf V600E) xenograft. The experiment in a line: A375 mouse xenograft pharmacodynamic assay (tumor pERK by ELISA). The format is in vivo, mice. Particulars: A-375, 20 mg/kg oral, 2 h post dose, vs vehicle, read-out: Measured pERK inhibition 2 h post dose. The procedure: To evaluate the in vivo pharmacodynamic (PD) effects of compounds of Formula I, an A375 (B-Raf V600E) xenograft model is employed. Briefly, 10×10^6 A375 tumor cells (ATCC) are prepared in a 1:1 matrigel mix (0.2 mL total volume) and implanted by subcutaneous injection in hind leg of nude female mice. A total of 4 mice each for each dosing group are employed. Treatment is initiated with oral administration (gavage) of test compound or vehicle (20% captisol, 25 mM phosphate, pH2.0) in 0.2 mL volume when average tumor size reaches approximately 300 mg. After a fixed time interval, the tumors are harvested and the phospho-ERK levels are measured by ELISA (Enzyme-linked immunosorbent assay). Treated groups are compared to the vehicle control group to calculate % inhibition.

Where [7] appears, read: twice a day at 12 mg/kg or thrice per day at 8 or 12 mg/kg.

A value given as a limit tells only on which side of the number the result lay.

Sequence of C-Raf (P04049 whole entry): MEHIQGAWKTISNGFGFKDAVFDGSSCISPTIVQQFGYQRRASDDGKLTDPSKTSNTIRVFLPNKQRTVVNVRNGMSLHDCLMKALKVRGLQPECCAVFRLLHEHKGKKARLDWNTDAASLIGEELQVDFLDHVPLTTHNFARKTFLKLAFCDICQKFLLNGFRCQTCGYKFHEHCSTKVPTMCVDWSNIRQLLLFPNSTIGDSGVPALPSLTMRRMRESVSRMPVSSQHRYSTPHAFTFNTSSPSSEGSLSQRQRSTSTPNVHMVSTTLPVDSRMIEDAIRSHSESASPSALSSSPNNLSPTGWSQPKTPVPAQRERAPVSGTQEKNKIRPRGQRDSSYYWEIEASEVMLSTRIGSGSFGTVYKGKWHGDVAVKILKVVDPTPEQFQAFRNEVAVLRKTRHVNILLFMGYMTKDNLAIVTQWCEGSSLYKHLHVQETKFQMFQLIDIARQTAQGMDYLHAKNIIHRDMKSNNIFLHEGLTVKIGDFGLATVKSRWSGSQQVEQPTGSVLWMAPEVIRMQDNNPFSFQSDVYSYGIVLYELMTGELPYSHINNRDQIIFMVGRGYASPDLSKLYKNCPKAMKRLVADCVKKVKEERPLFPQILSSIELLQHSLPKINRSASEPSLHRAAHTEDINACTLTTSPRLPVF
Sequence of A-Raf (P10398 whole entry): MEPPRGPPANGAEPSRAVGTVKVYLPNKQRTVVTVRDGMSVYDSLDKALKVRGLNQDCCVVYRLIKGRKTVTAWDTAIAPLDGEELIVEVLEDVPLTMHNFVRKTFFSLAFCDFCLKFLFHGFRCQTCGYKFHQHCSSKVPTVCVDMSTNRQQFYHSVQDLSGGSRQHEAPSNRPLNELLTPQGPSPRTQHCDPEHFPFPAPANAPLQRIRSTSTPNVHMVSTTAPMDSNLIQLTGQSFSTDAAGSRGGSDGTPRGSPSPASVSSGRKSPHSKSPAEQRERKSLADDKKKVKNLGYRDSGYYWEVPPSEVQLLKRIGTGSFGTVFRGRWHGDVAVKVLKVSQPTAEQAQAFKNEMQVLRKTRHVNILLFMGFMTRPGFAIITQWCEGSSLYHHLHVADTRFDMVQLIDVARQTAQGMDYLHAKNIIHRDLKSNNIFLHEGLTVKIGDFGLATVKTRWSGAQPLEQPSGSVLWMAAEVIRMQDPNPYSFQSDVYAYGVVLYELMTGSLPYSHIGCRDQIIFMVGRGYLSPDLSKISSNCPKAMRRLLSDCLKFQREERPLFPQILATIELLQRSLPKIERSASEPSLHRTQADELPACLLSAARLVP

As for `CNc1cc2nc(C)c(-c3cc(NC(=O)NCCC(C)(C)F)c(F)cc3C)cc2cn1` [Example 76, 1-(3-fluoro-3-methylbutyl)-3-(2-fluoro-4-methyl-5-(2-methyl-7-(methylamino)-1,6-naphthyridin-3-yl)phenyl)urea], the IC50 was less than 170 nM in data set [1]; 170 nM against C-Raf; 120 nM against A-Raf; 16 nM against B-Raf (V600E) (first B-Raf (V600E) column); 22 nM at B-Raf (V600E) (second B-Raf (V600E) column); 9 to 504 nM in the data set with A375res cells [3]. Further, in data set [5], the IC50 was 2 to 96 nM. For the same compound, the “IC50 shift A375 to A375res” value with A375res cells [2] is listed as 0.5-4.9 fold. Besides, the “animal body weight loss” value in data set [4] (twice a day at 10 or 30 mg/kg) is “minimal animal body weight loss”. For the same compound, the tumor growth entry in the data set with A375 xenograft tumor (twice a day at 10 or 30 mg/kg) is “tumor growth inhibition and tumor growth regression”.
Turning to `CNc1cc2nc(C)c(-c3cc(NC(=O)NCCC(C)(C)C)c(F)cc3F)cc2cn1` [Example 18, 1-(2,4-difluoro-5-(2-methyl-7-(methylamino)-1,6-naphthyridin-3-yl)phenyl)-3-(3,3-dimethylbutyl)urea], the IC50 was less than 170 nM in data set [1]; 20 nM against C-Raf; 31 nM on A-Raf; 35 nM against B-Raf (V600E) (first B-Raf (V600E) column); 37 nM against B-Raf (V600E) (second B-Raf (V600E) column); 2 to 96 nM in data set [5]. Besides, the inhibition in vivo at 20 mg/kg in data set [6] was found to be 93%. In addition, in data set [4] (setting [7]), the “animal body weight loss” value is “minimal animal body weight loss”. Moreover, in the data set with A375 xenograft tumor (setting [7]), the tumor growth result is given as “tumor growth inhibition”.

The values are drawn from patent US9187474B2, “Raf inhibitor compounds” (Deciphera Pharmaceuticals, LLC, priority 2012, dated 2015).
